Measured values from ChEMBL document CHEMBL3596102, “Anti-bacterial glycosyl triazoles - Identification of an N-acetylglucosamine derivative with bacteriostatic activity against Bacillus” (2014).
In brackets after ≈: the same amount, converted by molar mass. Activity calls are given as the source filed them. The rule behind the calls is not given here.

Legend:
[1] = system: Bacillus subtilis; experiment: Antibacterial activity against Bacillus subtilis ATCC 11775 assessed as inhibition of bacterial growth after 4 hrs by resazurin microtiter assay; type: functional; details: ATCC 11775, 4 h
[2] = system: Bacillus subtilis; experiment: Induction of disrupted cell division in Bacillus subtilis ATCC 11775 assessed as phenotype with highly elongated cells and the appearance of chains of cells at 0.8xMIC after 2.5 hrs by phase contrast microscopy; type: functional, organism-based
[3] = system: Bacillus subtilis; experiment: Bacteriostatic activity against Bacillus subtilis ATCC 11775 assessed as colony count at MIC after 4 hrs by resazurin microtiter assay (reference value: 9.40 +/-2.88x10^7 CFU/ml); type: functional
[4] = system: Bacillus subtilis; experiment: Inhibition of GlcNAcase in Bacillus subtilis ATCC 11775 assessed as inhibition of nitrophenol release using beta-p-nitrophenyl GlcNAc as substrate at 250 uM after 16 hrs by Spectromax 190 microtitre plate reader
[5] = system: Bacillus subtilis; experiment: Inhibition of GlcNAcase in Bacillus subtilis ATCC 11775 assessed as inhibition of nitrophenol release using beta-p-nitrophenyl GlcNAc as substrate after 16 hrs by Spectromax 190 microtitre plate reader
[6] = system: Bacillus cereus; experiment: Antibacterial activity against Bacillus cereus assessed as inhibition of bacterial growth after 4 hrs by resazurin microtiter assay; type: functional
[7] = system: Bacillus cereus; experiment: Bacteriostatic activity against Bacillus cereus assessed as colony count at MIC after 4 hrs by resazurin microtiter assay (reference value: 2.67 +/-1.53x10^8 CFU/ml); type: functional

MIC [1] [µM]	inhibition [4]	inhibition [5]	MIC [6] [µM]	Compound	Activity [2]	Activity [3] [×10⁷ CFU/ml]	Activity [7] [×10⁸ CFU/ml]
63 (≈ 45.8 µg/mL)	Active	Dose-dependent effect	–	CCCCNC(=O)C(C1CCCCC1)N(Cc1cn([C@@H]2O[C@H](CO)[C@@H](O)[C@H](O)[C@H]2NC(C)=O)nn1)C(=O)c1ccccc1I (some centres not stated)	Active	8.5	–
–	–	–	60 (≈ 39.5 µg/mL)	COc1ccc(C(C(=O)NCc2ccccc2)N(Cc2ccccc2)C(=O)c2cn([C@@H]3O[C@H](CO)[C@@H](O)[C@H](O)[C@H]3NC(C)=O)nn2)cc1 (some centres not stated)	–	–	7
